Experimental data: US9751854B2 (Millennium Pharmaceuticals, Inc., priority 2014, dated 2017)

Molecular target: human VPS34 (Homo sapiens (Human), UniProt Q8NEB9)
Test: Human VPS34 enzyme assay (Adapta TR-FRET ADP detection)
Type: biochemical
Conditions: IC50 range class

human VPS34, sequence (Q8NEB9 whole entry): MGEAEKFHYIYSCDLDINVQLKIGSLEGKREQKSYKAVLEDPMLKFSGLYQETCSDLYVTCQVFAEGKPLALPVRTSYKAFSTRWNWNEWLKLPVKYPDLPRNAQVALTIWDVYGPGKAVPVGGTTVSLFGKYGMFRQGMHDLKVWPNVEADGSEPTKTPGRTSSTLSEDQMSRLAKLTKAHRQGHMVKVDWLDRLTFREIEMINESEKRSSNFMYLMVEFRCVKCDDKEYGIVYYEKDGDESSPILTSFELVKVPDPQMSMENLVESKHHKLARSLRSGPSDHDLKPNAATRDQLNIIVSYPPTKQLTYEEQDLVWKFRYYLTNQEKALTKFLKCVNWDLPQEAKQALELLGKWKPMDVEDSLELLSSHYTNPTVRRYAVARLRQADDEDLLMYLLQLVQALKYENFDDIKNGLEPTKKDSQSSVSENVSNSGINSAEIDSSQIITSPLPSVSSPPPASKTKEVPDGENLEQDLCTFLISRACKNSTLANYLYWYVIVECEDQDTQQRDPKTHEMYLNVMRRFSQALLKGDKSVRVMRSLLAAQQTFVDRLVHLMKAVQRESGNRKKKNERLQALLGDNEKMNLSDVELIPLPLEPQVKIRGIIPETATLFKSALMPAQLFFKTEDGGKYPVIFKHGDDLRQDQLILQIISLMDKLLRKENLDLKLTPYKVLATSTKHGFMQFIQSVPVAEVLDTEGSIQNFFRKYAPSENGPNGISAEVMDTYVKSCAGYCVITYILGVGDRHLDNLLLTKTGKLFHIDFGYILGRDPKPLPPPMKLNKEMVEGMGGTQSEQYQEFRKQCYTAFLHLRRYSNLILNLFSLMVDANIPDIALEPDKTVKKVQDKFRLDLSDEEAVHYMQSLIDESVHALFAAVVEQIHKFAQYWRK

Row | IC50 [nM] | SMILES
1 | < 10 | CC(=O)Nc1cc(-c2cnc(N)c(N(C)S(C)(=O)=O)c2)ccn1 [Compound I-133, N-{6-amino-5-[methyl(methylsulfonyl)amino]-3,4′-bipyridin-2′-yl}acetamide]
2 | 10 to 50 | CC(=O)Nc1cc(-c2cnc(C)c(NS(=O)(=O)c3ccc(C(C)C)cc3)c2)ccn1 [Compound I-134, N-(5-{[(4-isopropylphenyl)sulfonyl]amino}-6-methyl-3,4′-bipyridin-2′-yl)acetamide]
3 | > 100 | CC(=O)Nc1cc(-c2cnc3ncn(CC4CC4)c3c2)ccn1 [Compound I-135, N-{4-[1-(cyclopropylmethyl)-1H-imidazo[4,5-b]pyridin-6-yl]pyridin-2-yl}acetamide]
4 | < 10 | CC(=O)Nc1cc(-c2cnc(N)c(C(=O)Nc3ccccc3Cl)c2)ccn1 [Compound I-136, 2′-acetamido-6-amino-N-(2-chlorophenyl)-3,4′-bipyridine-5-carboxamide]
5 | 10 to 50 | CC(=O)Nc1cc(-c2cncc(S(=O)(=O)N(C)C)c2)ccn1 [Compound I-137, N-[5-(dimethylsulfamoyl)-3,4′-bipyridin-2′-yl]acetamide]
6 | 10 to 50 | CC(=O)Nc1cc(-c2cnc(N)c(S(=O)(=O)Cc3ccc(F)cc3F)c2)ccn1 [Compound I-138, N-[6-amino-5-[(2,4-difluorobenzyl)sulfonyl]-3,4′-bipyridin-2′-yl]acetamide]
7 | > 100 | CC(=O)Nc1cc(-c2cncc(N)c2)ccn1 [Compound I-139, N-(5-amino-3,4′-bipyridin-2′-yl)acetamide]
8 | 10 to 50 | CC(=O)Nc1cc(-c2cnc3[nH]ccc3c2)ccn1 [Compound I-140, N-[4-(1H-pyrrolo[2,3-b]pyridin-5-yl)pyridin-2-yl]acetamide]
9 | < 10 | CNc1ncc(-c2ccnc(NC(C)=O)c2)cc1N(CC1CC1)S(C)(=O)=O [Compound I-141]
10 | < 10 | COc1cc(C)ccc1S(=O)(=O)Nc1cc(-c2ccnc(NC(C)=O)c2)cnc1C [Compound I-142, N-(5-{[(2-methoxy-4-methylphenyl)sulfonyl]amino}-6-methyl-3,4′-bipyridin-2′-yl)acetamide]
11 | < 10 | CC(=O)Nc1cc(-c2cnc(C)c(NS(=O)(=O)c3cc(C(F)(F)F)ccc3F)c2)ccn1 [Compound I-143, N-[5-({[2-fluoro-5-(trifluoromethyl)phenyl]sulfonyl}amino)-6-methyl-3,4′-bipyridin-2′-yl]acetamide]
12 | < 10 | CC(=O)Nc1cc(-c2cnc(C)c(NS(=O)(=O)c3ccccc3F)c2)ccn1 [Compound I-144, N-[5-{[(2-fluorophenyl)sulfonyl]amino}-6-methyl-3,4′-bipyridin-2′-yl)acetamide]
13 | 50 to 100 | CCOCCS(=O)(=O)c1cc(-c2ccnc(NC(C)=O)c2)cnc1N [Compound I-145, N-{6-amino-5-[(2-ethoxyethyl)sulfonyl]-3,4′-bipyridin-2′-yl}acetamide]
14 | 10 to 50 | COC(=O)Nc1cc(-c2cnc(C)c(N3CCCS3(=O)=O)c2)ccn1 [Compound I-146, methyl [5-(1,1-dioxidoisothiazolidin-2-yl)-6-methyl-3,4′-bipyridin-2′-yl]carbamate]
15 | < 10 | CNc1ncc(-c2ccnc(NC(C)=O)c2)cc1N(C)S(C)(=O)=O [Compound I-147, N-{6-(methylamino)-5-[methyl(methylsulfonyl)amino]-3,4′-bipyridin-2′-yl}acetamide]
16 | 10 to 50 | CC(=O)Nc1cc(-c2cnc(N)c(S(=O)(=O)NCCc3ccccc3)c2)ccn1 [Compound I-148, N-{6-amino-5-[(2-phenylethyl)sulfamoyl]-3,4′-bipyridin-2′-yl}acetamide]
17 | 10 to 50 | CC(=O)Nc1cc(-c2cnc(N)c(C(=O)N(C)C)c2)ccn1 [Compound I-149, 2′-acetamido-6-amino-N,N-dimethyl-3,4′-bipyridine-5-carboxamide]
18 | < 10 | CC(=O)Nc1cc(-c2cnc(C)c(NS(=O)(=O)c3c(F)cccc3F)c2)ccn1 [Compound I-150, N-(5-{[(2,6-difluorophenyl)sulfonyl]amino]-6-methyl-3,4′-bipyridin-2′-yl)acetamide]
19 | 10 to 50 | CC(=O)Nc1cc(-c2cnc3c(c2)c(S(=O)(=O)N2CCCC2)cn3C)ccn1 [Compound I-151, N-{4-[1-methyl-3-(pyrrolidin-1-ylsulfonyl)-1H-pyrrolo[2,3-b]pyridin-5-yl]pyridin-2-yl}acetamide]
20 | 10 to 50 | CC(=O)Nc1cc(-c2cnc(N)c(C(=O)N3CCOCC3)c2)ccn1 [Compound I-152, N-[6-amino-5-(morpholin-4-ylcarbonyl)-3,4′-bipyridin-2′-yl]acetamide]
21 | < 10 | CC(=O)Nc1cc(-c2cnc(C)c(NS(=O)(=O)c3ccc(Cl)cc3)c2)ccn1 [Compound I-154, N-(5-{[(4-chlorophenyl)sulfonyl]amino}-6-methyl-3,4′-bipyridin-2′-yl)acetamide]

Row | IC50 [nM] | SMILES
22 | < 10 | CC(=O)Nc1cc(-c2cnc(C)c(NS(=O)(=O)c3cccc(F)c3)c2)ccn1 [Compound I-155, N-(5-{[(3-fluorophenyl)sulfonyl]amino}-6-methyl-3,4′-bipyridin-2′-yl)acetamide]
23 | < 10 | CC(=O)Nc1cc(-c2cnc(N)c(S(=O)(=O)N3CCCCC3)c2)ccn1 [Compound I-156, N-[6-amino-5-(piperidin-1-ylsulfonyl)-3,4′-bipyridin-2′-yl]acetamide]
24 | 10 to 50 | CC(=O)Nc1cc(-c2cnc(N)c(C(=O)N3CC[C@@H](F)C3)c2)ccn1 [Compound I-157, N-[6-amino-5-{[(3R)-3-fluoropyrrolidin-1-yl]carbonyl}-3,4′-bipyridin-2′-yl)acetamide]
25 | < 10 | CC(=O)Nc1cc(-c2cnc3[nH]cc(S(=O)(=O)N4CCCC4)c3c2)ccn1 [Compound I-158, N-{4-[3-(pyrrolidin-1-ylsulfonyl)-1H-pyrrolo[2,3-b]pyridin-5-yl]pyridin-2-yl}acetamide]
26 | < 10 | COc1cc(F)c(S(=O)(=O)Nc2cc(-c3ccnc(NC(C)=O)c3)cnc2C)cc1F [Compound I-159, N-(5-{[(2,5-difluoro-4-methoxyphenyl)sulfonyl]amino}-6-methyl-3,4′-bipyridin-2′-yl)acetamide]
27 | 10 to 50 | CNc1ncc(-c2ccnc(NC(C)=O)c2)cc1C(=O)NC12CC(C1)C2 [Compound I-160, 2′-acetamido-N-(bicyclo[1.1.1]pent-1-yl)-6-(methylamino)-3,4′-bipyridine-5-carboxamide]
28 | < 10 | CC(=O)Nc1cc(-c2cnc(C)c(NS(=O)(=O)c3ccc(F)cc3F)c2)c(F)cn1 [Compound I-161, N-(5-{[(2,4-difluorophenyl)sulfonyl]amino}-5′-fluoro-6-methyl-3,4′-bipyridin-2′-yl)acetamide]
29 | 10 to 50 | CC(=O)Nc1cc(-c2cnc(N(C)C)c(C(=O)N(C)C)c2)ccn1 [Compound I-162, 2′-acetamido-6-(dimethylamino)-N,N-dimethyl-3,4′-bipyridine-5-carboxamide]
30 | < 10 | COc1ccc(S(=O)(=O)Nc2cc(-c3ccnc(NC(C)=O)c3)cnc2C)c(F)c1 [Compound I-163, N-(5-{[(2-fluoro-4-methoxyphenyl)sulfonyl]amino}-6-methyl-3,4′-bipyridin-2′-yl)acetamide]
31 | < 10 | CC(=O)Nc1cc(-c2cnc(F)c(NS(=O)(=O)c3ccc(F)cc3F)c2)ccn1 [Compound I-164, N-(5-{[(2,4-difluorophenyl)sulfonyl]amino}-6-fluoro-3,4′-bipyridin-2′-yl)acetamide]
32 | < 10 | COc1ccc(S(=O)(=O)Nc2cc(-c3ccnc(NC(C)=O)c3)cnc2C)cc1 [Compound I-165, N-(5-{[(4-methoxyphenyl)sulfonyl]amino}-6-methyl-3,4′-bipyridin-2′-yl)acetamide]
33 | < 10 | CN(C)S(=O)(=O)c1cc(-c2ccnc(Nc3ncco3)c2)cnc1N [Compound I-166, 6-amino-N,N-dimethyl-2′-(1,3-oxazol-2-ylamino)-3,4′-bipyridine-5-sulfonamide]
34 | 10 to 50 | CC(=O)Nc1cc(-c2cnc(C)c(NS(C)(=O)=O)c2)ccn1 [Compound I-167, N-{6-methyl-5-[(methylsulfonyl)amino]-3,4′-bipyridin-2′-yl}acetamide]
35 | < 10 | CC(=O)Nc1cc(-c2cnc(C)c(NS(=O)(=O)c3cccc(C(F)(F)F)c3)c2)ccn1 [Compound I-168, N-[6-methyl-5-({[3-(trifluoromethyl)phenyl]sulfonyl}amino)-3,4′-bipyridin-2′-yl]acetamide]
36 | 10 to 50 | CC(=O)Nc1cc(-c2cnc(N)c(C(=O)NC3CC3)c2)ccn1 [Compound I-169, 2′-acetamido-6-amino-N-cyclopropyl-3,4′-bipyridine-5-carboxamide]
37 | < 10 | CC(=O)Nc1cc(-c2cnc(N)c(S(=O)(=O)Nc3ccc(F)cc3F)c2)ccn1 [Compound I-170, N-{6-amino-5-[(2,4-difluorophenyl)sulfamoyl]-3,4′-bipyridin-2′-yl}acetamide]
38 | < 10 | COC(=O)Nc1cc(-c2cnc(N)c(S(=O)(=O)N(C)C)c2)ccn1 [Compound I-171, Methyl [6-amino-5-(dimethylsulfamoyl)-3,4′-bipyridin-2′-yl]carbamate]
39 | < 10 | CNc1ncc(-c2ccnc(NC(C)=O)c2)cc1S(=O)(=O)N(C(C)C)C(C)C [Compound I-173, N-[5-(diisopropylsulfamoyl)-6-(methylamino)-3,4′-bipyridin-2′-yl]acetamide]
40 | < 10 | CC(=O)Nc1cc(-c2cnc(N(C)C)c(C(=O)N(C)c3ccc(F)cc3F)c2)ccn1 [Compound I-174, 2′-Acetamido-N-(2,4-difluorophenyl)-6-(dimethylamino)-N-methyl-[3,4′-bipyridine]-5-carboxamide]
41 | 10 to 50 | CC(=O)Nc1cc(-c2cnc(N)c(S(=O)(=O)C(C)C)c2)ccn1 [Compound I-175, N-[6-amino-5-(isopropylsulfonyl)-3,4′-bipyridin-2′-yl]acetamide]
42 | 10 to 50 | CC(=O)Nc1cc(-c2cnc3[nH]cc(S(=O)(=O)c4ccccc4)c3c2)ccn1 [Compound I-176, N-{4-[3-(phenylsulfonyl)-1H-pyrrolo[2,3-b]pyridin-5-yl]pyridin-2-yl}acetamide]

Row | SMILES | IC50 [nM]
43 | CC(=O)Nc1cc(-c2cnc(N)c(S(=O)(=O)Cc3ccccc3Cl)c2)ccn1 [Compound I-172, N-{6-amino-5-[(chlorobenzyl)sulfonyl]-3,4′-bipyridin-2′-yl}acetamide] | 10 to 50
